Reference: patent US20040024215A1, “Benzamide derivatives and their use as apob-100 and mtp inhibitors” (priority 2000, published 2004)
pIC50: −log10 of the molar value.

Experiments:
[1] = target: human MTP (Homo sapiens, UniProt P55157); experiment: human MTP activity assay (SPA, 3H-triolein transfer between liposomes); format: biochemical; settings: 3H-triolein transfer from donor to acceptor liposomes, 25 min incubation at 37° C., streptavidin-SPA beads
Protocol: The ability of the compounds of this invention to inhibit human MTP activity is measured by an in vitro assay where MTP tranfers 3H-triolein between phosphatidylcholine liposomes. The specificity of the compounds of the invention is established by comparing the effects on apoB-100 and apoprotein A-1 production. A specificity of at least 100 is preferred.
The human MTP activity assay was established using SPA technology. Donor liposomes were prepared with 3H-triolein and phosphatidylcholine, while acceptor liposomes contained biotinylated phosphatidylethanolamine and phosphatidylcholine. The MTP-mediated 3H-triolein transfer onto acceptor liposomes was allowed by a 25 min incubation at 37° C., and quantified by the addition of streptavidin-SPA beads.

human MTP, sequence (P55157 19-894): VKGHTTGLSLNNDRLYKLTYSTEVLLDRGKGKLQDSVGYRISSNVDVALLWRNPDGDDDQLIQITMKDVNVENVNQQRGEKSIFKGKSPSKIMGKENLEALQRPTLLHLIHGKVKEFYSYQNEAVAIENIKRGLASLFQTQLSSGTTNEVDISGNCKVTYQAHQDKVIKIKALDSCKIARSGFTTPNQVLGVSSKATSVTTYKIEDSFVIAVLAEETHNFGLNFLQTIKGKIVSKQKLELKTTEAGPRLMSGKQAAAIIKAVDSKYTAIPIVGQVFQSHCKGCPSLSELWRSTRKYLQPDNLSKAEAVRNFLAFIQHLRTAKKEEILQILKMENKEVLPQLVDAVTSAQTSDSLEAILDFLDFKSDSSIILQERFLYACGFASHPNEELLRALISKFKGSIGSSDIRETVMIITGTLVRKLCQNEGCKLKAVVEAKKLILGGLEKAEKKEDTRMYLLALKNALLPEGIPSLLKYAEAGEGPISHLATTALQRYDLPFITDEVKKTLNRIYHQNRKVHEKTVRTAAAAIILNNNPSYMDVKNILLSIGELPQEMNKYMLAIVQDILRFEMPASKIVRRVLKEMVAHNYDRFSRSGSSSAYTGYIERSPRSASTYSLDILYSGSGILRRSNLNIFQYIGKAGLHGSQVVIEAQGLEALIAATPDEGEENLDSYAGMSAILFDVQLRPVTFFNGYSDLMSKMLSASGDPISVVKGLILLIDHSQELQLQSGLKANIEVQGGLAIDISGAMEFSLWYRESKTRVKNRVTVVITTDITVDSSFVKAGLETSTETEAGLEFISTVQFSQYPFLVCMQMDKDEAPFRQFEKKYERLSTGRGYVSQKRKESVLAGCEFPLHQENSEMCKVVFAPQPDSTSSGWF
human MTP, sequence (P07237 18-508 partner): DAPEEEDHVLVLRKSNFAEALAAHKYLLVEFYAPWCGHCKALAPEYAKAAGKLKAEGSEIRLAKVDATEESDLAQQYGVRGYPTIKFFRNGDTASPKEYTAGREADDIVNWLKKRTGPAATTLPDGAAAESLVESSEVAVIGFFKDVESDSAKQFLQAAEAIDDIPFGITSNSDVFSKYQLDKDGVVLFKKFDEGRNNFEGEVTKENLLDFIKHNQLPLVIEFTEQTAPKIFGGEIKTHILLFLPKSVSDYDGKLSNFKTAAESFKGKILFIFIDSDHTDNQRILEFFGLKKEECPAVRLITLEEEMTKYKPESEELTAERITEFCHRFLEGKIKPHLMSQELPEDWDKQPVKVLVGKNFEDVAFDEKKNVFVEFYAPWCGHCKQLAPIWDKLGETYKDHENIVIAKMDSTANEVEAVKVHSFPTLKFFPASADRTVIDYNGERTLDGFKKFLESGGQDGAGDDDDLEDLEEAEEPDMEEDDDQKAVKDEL

Structure (SMILES): CC(c1ccccc1)N1CCN(c2ccc(NC(=O)c3ccccc3-c3ccc(C(F)(F)F)cc3)cc2)CC1 (stereo not drawn) [Example 1, 4′-Trifluoromethyl-biphenyl-2-carboxylic acid [4-(4-(α-methyl-benzyl)-piperazin-1-yl)-phenyl]-amide]
- melting point: 194 to 196 °C

Structure (SMILES): Cc1ccc(C(=O)Nc2ccc(N3CCN(C(C)c4cccc(C#N)c4)CC3)cc2)c(-c2ccc(C(F)(F)F)cc2)c1 (stereo not drawn) [Example 2, 5-Methyl-4′-trifluoromethyl-biphenyl-2-carboxylic acid [4-(4-(3-cyano-α-methyl-benzyl)-piperazin-1-yl)-phenyl]-amide]
- pIC50 [1]: 9.00
- melting point: 192 to 194 °C

Structure (SMILES): CC(c1cccc(C(F)(F)F)c1)N1CCN(c2ccc(NC(=O)c3ccccc3-c3ccc(C(F)(F)F)cc3)cc2)CC1 (stereo not drawn) [Example 4, 4′-Trifluoromethyl-biphenyl-2-carboxylic acid [4-(4-(3-trifluoromethyl-α-methyl-benzyl)-piperazin-1-yl)-phenyl]-amide]
- melting point: 158 to 160 °C

Structure (SMILES): N#CC(c1ccccc1)N1CCN(c2ccc(NC(=O)c3ccccc3-c3ccc(C(F)(F)F)cc3)cc2)CC1 (stereo not drawn) [Example 5, 4′-Trifluoromethyl-biphenyl-2-carboxylic acid [4-(4-(α-cyano-benzyl)-piperazin-1-yl)-phenyl]-amide]
- melting point: 204 °C

Structure (SMILES): CC(=O)C(c1ccc(F)cc1)N1CCN(c2ccc(NC(=O)c3ccccc3-c3ccc(C(F)(F)F)cc3)cc2)CC1 (stereo not drawn) [Example 7, 4′-trifluoromethyl-biphenyl-2-carboxylic acid [4-(4-(4-fluoro-α-acetyl-benzyl)-piperazin-1-yl)-phenyl]-amide]
- melting point: 200 to 202 °C

Structure (SMILES): O=C(Nc1ccc(N2CCN(C(C(=O)c3ccccc3)c3ccccc3)CC2)cc1)c1ccccc1-c1ccc(C(F)(F)F)cc1 (stereo not drawn) [Example 8, 4′-Trifluoromethyl-biphenyl-2-carboxylic acid [4-(4-(α-benzoyl-benzyl)-piperazin-1-yl)-phenyl]-amide]
- pIC50 [1]: 7.40
- melting point: 165 °C

Structure (SMILES): O=C(Nc1ccc(N2CCN(C(c3ccccc3)c3noc(-c4ccccc4)n3)CC2)cc1)c1ccccc1-c1ccc(C(F)(F)F)cc1 (stereo not drawn) [Example 9, 4′-Trifluoromethyl-biphenyl-2-carboxylic acid [4-(4-(α(5-phenyl-[1,2,4]oxadiazol-3-yl)-benzyl)-piperazin-1-yl)-phenyl]-amide]
- pIC50 [1]: 8.25

Structure (SMILES): O=C(Nc1ccc(N2CCN(C(Cn3cccn3)c3ccccc3)CC2)cc1)c1ccccc1-c1ccc(C(F)(F)F)cc1 (stereo not drawn) [Example 10, 4′-Trifluoromethyl-biphenyl-2-carboxylic acid [4-(4-(α-((pyrazol-1-yl)-methyl)-benzyl)-piperazin-1-yl)-phenyl]-amide]
- pIC50 [1]: 6.80

Structure (SMILES): COC(=O)C(c1ccccc1)N1CCN(c2ccc(NC(=O)c3ccccc3-c3ccc(C(F)(F)F)cc3)cc2)CC1 (stereo not drawn) [Example 11, 4′-Trifluoromethyl-biphenyl-2-carboxylic acid [4-(4-(α-(methoxcyarbonyl)-benzyl)-piperazin-1-yl)-phenyl]-amide]
- pIC50 [1]: 8.49
- melting point: 130 to 135 °C

Structure (SMILES): O=C(Nc1ccc(N2CCN(C(C(=O)NCc3ccccn3)c3ccccc3)CC2)cc1)c1ccccc1-c1ccc(C(F)(F)F)cc1 (stereo not drawn) [Example 14, 4′-Trifluoromethyl-biphenyl-2-carboxylic acid [4-(4-(α-((pyridin-2-yl-methyl)-aminocarbonyl)-benzyl)-piperazin-1-yl)-phenyl]-amide]
- pIC50 [1]: 8.52
- melting point: 139 to 141 °C

Structure (SMILES): N#Cc1cccc(C(c2ccc[nH]2)N2CCN(c3ccc(NC(=O)c4ccccc4-c4ccc(C(F)(F)F)cc4)cc3)CC2)c1 (stereo not drawn) [Example 17, 4′-Trifluoromethyl-biphenyl-2-carboxylic acid [4-(4-(3-cyano-α-(pyrrol-2-yl)-benzyl)-piperazin-1-yl)-phenyl]-amide]
- melting point: 202 to 203 °C
